Experimental data: PMC6478823, “A suite of phenotypic assays to ensure pipeline diversity when prioritizing drug-like Cryptosporidium growth inhibitors” (Nature Communications, 2019)

What was measured:
C. parvum [1] = assay: Egress, motility, reinvasion assay (PV ratio); settings: compound at EC90; for Egress and Reinvasion Assay: Mean PV ratios (19.5h:6h), Average: average of replicates; for Egress and Reinvasion Assay: Mean PV ratios (19.5h:6h), Replicate 1a: single replicate 1; for Egress and Reinvasion Assay: Mean PV ratios (19.5h:6h), Replicate 2a: single replicate 2
Method: For quantification of parasitophorous vacuoles over time, HCT-8 cells were grown to greater than 90% confluence in 384-well plates and infected with 11,000 oocysts after triggering excystation.

C. parvum [2] = format: cell-based, Cryptosporidium parvum; settings: compound at EC90; for Invasion Assay: Mean % Inhibition (parasites), Average: average of replicates; for Invasion Assay: Mean % Inhibition (parasites), Replicate 1a: single biological replicate 1; for Invasion Assay: Mean % Inhibition (parasites), Replicate 2a: single biological replicate 2
C. parvum [3] = assay: DNA replication assay (EdU incorporation); format: cell-based, Cryptosporidium parvum; settings: compound at EC90; for DNA Synthesis Assay: Mean % Inhibition of EdU-labeling (normalized to parasite numbers), Average: average of replicates; for DNA Synthesis Assay: Mean % Inhibition of EdU-labeling (normalized to parasite numbers), Replicate 1: single replicate 1; for DNA Synthesis Assay: Mean % Inhibition of EdU-labeling (normalized to parasite numbers), Replicate 2: single replicate 2
[4] = test system: C. parvum DMC1 expression; assay: Sexual differentiation assay (DMC1 expression); format: cell-based, Cryptosporidium parvum; settings: compound at asexual EC90, 48-72 h; for Asexual to sexual differentiation: Mean % DMC1 inhibition (normalized to host nuclei), Average: average of replicates; for Asexual to sexual differentiation: Mean % DMC1 inhibition (normalized to host nuclei), Replicate 1a: single replicate 1; for Asexual to sexual differentiation: Mean % DMC1 inhibition (normalized to host nuclei), Replicate 2a: single replicate 2
Procedure, shortened: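 High-content microscopy of infected cells fixed at set times post-infection, stained with anti-DMC1 mAb 1H10G7, Vicia villosa lectin and Hoechst; lectin-positive parasites counted, then DMC1-positive.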

Structure (SMILES)	Egress and Reinvasion Assay: Mean PV ratios (19.5h:6h), Average (C. parvum [1])	Egress and Reinvasion Assay: Mean PV ratios (19.5h:6h), Replicate 1a (C. parvum [1])	Egress and Reinvasion Assay: Mean PV ratios (19.5h:6h), Replicate 2a (C. parvum [1])	Invasion Assay: Mean % Inhibition (parasites), Average (C. parvum [2])	Invasion Assay: Mean % Inhibition (parasites), Replicate 1a (C. parvum [2])	Invasion Assay: Mean % Inhibition (parasites), Replicate 2a (C. parvum [2])	DNA Synthesis Assay: Mean % Inhibition of EdU-labeling (normalized to parasite numbers), Average (C. parvum [3])	DNA Synthesis Assay: Mean % Inhibition of EdU-labeling (normalized to parasite numbers), Replicate 1 (C. parvum [3])	DNA Synthesis Assay: Mean % Inhibition of EdU-labeling (normalized to parasite numbers), Replicate 2 (C. parvum [3])	DNA Synthesis Assay: Mean % Inhibition of EdU-labeling (normalized to parasite numbers), Replicate 3 (C. parvum [3]; single replicate 3)	DNA Synthesis Assay: Mean % Inhibition of EdU-labeling (normalized to parasite numbers), Replicate 4 (C. parvum [3]; single replicate 4)	DNA Synthesis Assay: Mean % Inhibition of EdU-labeling (normalized to parasite numbers), Replicate 5 (C. parvum [3]; single replicate 5)	Asexual to sexual differentiation: Mean % DMC1 inhibition (normalized to host nuclei), Average [4]	Asexual to sexual differentiation: Mean % DMC1 inhibition (normalized to host nuclei), Replicate 1a [4]	Asexual to sexual differentiation: Mean % DMC1 inhibition (normalized to host nuclei), Replicate 2a [4]	Asexual to sexual differentiation: Mean % DMC1 inhibition (normalized to host nuclei), Replicate 3a ([4]; single replicate 3)	Egress and Reinvasion Assay: Mean PV ratios (19.5h:6h), Replicate 3a (C. parvum [1]; single replicate 3)	Egress and Reinvasion Assay: Mean PV ratios (19.5h:6h), Replicate 4a (C. parvum [1]; single replicate 4)
O=C(Nc1nc(-c2ccccn2)cs1)c1ccccc1Br [MMV665909]	0.41	0.61	0.21	-12.01%	-8.54%	-15%	90.80%	100.00%	100.00%	80.23%	80.99%	92.80%	53.05%	56.13%	49.96%	–	–	–
CCOc1ccc2cc(-c3nn(CC4CCN(C)CC4)c4ncnc(N)c34)ccc2n1 [BKI-1369]	1.41	1.20	1.62	-7.94%	-5%	-11%	16.97%	25.00%	8.94%	–	–	–	41.93%	-4.30%	59.32%	70.76%	–	–
CC(=O)O[C@@]12CO[C@@H]1C[C@H](O)[C@@]1(C)C(=O)[C@H](O)C3=C(C)[C@@H](OC(=O)[C@H](O)[C@@H](NC(=O)OC(C)(C)C)c4ccccc4)C[C@@](O)([C@@H](OC(=O)c4ccccc4)[C@H]21)C3(C)C [Docetaxel]	1.76	1.96	2.25	-8.63%	-1.34%	-16%	16.66%	33.42%	-0.10%	–	–	–	37.07%	34.13%	40.00%	–	1.23	1.60
